Data taken from paper PMC7345836, “Absorption and Tissue Distribution of Siphonaxanthin from Green Algae” (Marine Drugs, 2020).

Columns and labels:
Caco-2 cells = experiment: Uptake and metabolism of micellar siphonaxanthin by differentiated Caco-2 cells; type: in vitro ADME, human; conditions: Caco-2 cells incubated with 1 nmol/well siphonaxanthin solubilized micelles for 1, 3, 6 and 24 h
Procedure: Caco-2 cells obtained from the RIKEN Gene Bank (Tsukuba, Japan) were cultured in Dulbecco’s Modified Eagle’s Medium (DMEM) containing 10% fetal bovine serum (FBS), 1% penicillin-streptomycin (PS), and 1% non-essential amino acids in a humidified atmosphere of 95% air and 5% CO2 at 37 °C. For differentiation, cells were seeded in 12-well plates at a density of 2.0 × 10^5 cells/well in 1 mL DMEM medium described above and allowed to differentiate until day 22 from seeding. The medium was regularly changed three times a week. Experiments were performed at day 22 post-seeding on 12-well plates.
Siphonaxanthin solubilized in micelles was added to the medium for treatment, and micelle formation was performed as previously described. […] The concentration of micellar carotenoid was determined as 1.0 ± 0.05 μmol/L by HPLC before use in the following experiment.
The cell monolayers on 12-well plates were rinsed with the serum-free medium and then incubated in 1 mL of medium containing micellar siphonaxanthin. […] The residue was dissolved in methanol and subjected to quantitative and qualitative analysis. […] The concentration of siphonaxanthin in the medium was also analyzed. An aliquot of the medium was mixed with 4-fold methanol and subjected to the above HPLC analysis for quantify. […]

[1] = Tissue distribution and accumulation of siphonaxanthin and its metabolites in mice after 16-day dietary supplementation (HPLC); type: in vivo; conditions: ICR mice
Procedure: (§1) All experimental animal protocols were approved by the Animal Experimentation Committee of Kyoto University, Japan, for the care and use of experimental animals (Approval No. 26–35). Male ICR mice (7 weeks of age) were purchased from Japan SLC, Inc. (Hamamatsu, Japan). All mice were housed individually and maintained on an alternating 12-h light/dark cycle at a temperature of 23 ± 1 °C and free access to drinking water and chow (Oriental Yeast Co., Ltd., Tokyo, Japan). After an acclimatization period of 1 week, the mice were randomly divided into control and siphonaxanthin groups (n = 4 per group). Mice in the control group were fed an AIN-93G diet. The siphonaxanthin mouse group was fed the AIN-93G diet with siphonaxanthin supplementation, 65.79 nmol/g of diet (0.004%). The total food intake and body weight were recorded daily. After dietary supplementation for 16 days, the mice were anesthetized with isoflurane. Blood was collected from the caudal vena cava. Plasma was prepared by centrifuging at 400 g for 15 min at 4 °C. The tissues were rapidly removed, weighed, and immediately frozen in liquid nitrogen, and stored at −80 °C until use.
Carotenoids were then extracted from the plasma and tissues. Briefly, aliquots of tissue samples (0.2 g) were homogenized in a 9-fold volume of 0.9% NaCl saline with a homogenizer dispenser (T10 basic ULTRA-TURRAX, IKA). Plasma samples were diluted with a 3-fold volume of Milli-Q water. The resultant tissue homogenates (0.9 mL) or diluent plasma samples (0.9 mL) were mixed with 3 mL of dichloromethane/methanol (2:1, v/v) to extract carotenoids. The samples were extracted three times, and the dichloromethane layer was collected after centrifugation at 1690 g at 4 °C for 10 min. After evaporation under nitrogen, the residue was resuspended in 20 μL of dichloromethane and methanol (1:1, v/v) for HPLC analysis.
HPLC analysis was performed using a Prominence LC system (Shimadzu, Kyoto, Japan) connected to a photodiode array detector (SPD-M20A, Shimadzu, Kyoto, Japan), followed by an ion trap-time of flight mass spectrometer (LCMS-IT-TOF, Shimadzu, Kyoto, Japan) equipped with an atmospheric pressure chemical ionization (APCI) source or electrospray ionization (ESI) source. Siphonaxanthin was separated on a TSK gel ODS-80Ts QA column (2.0 × 250 mm, 5 μm, Tosoh, Tokyo, Japan). The binary gradient mobile phase was methanol/water (83:17, v/v) containing 0.1% ammonium acetate as mobile phase A and ethyl acetate/methanol (30:70, v/v) containing 0.1% ammonium acetate as mobile phase B. The column was eluted at a flow rate of 0.2 mL/min using the following gradients: 0–30 min, 0% B; 30–45 min, 0–100% B; 45–60 min, 100% B; 60–65 min, 100–0% B; 65–70 min, 0% B. Siphonaxanthin was detected at 450 nm. The APCI source was heated at 200 °C, and the probe was maintained at 400 °C. Nitrogen was used as sheath gas at 2.0 L/min, and drying gas was used at 25 kPa. Mass spectra were recorded in the positive ion mode. For the ESI source, sheath gas was set at 1.5 L/min, and drying gas was used at 120 kPa. A spray voltage of 4.5 kV was used for positive ionization. The peak identities of siphonaxanthin and its possible metabolites were further confirmed from their characteristic UV-vis spectra and their positive ions. Siphonaxanthin was quantified from its peak area at 450 nm using an external standard calibration curve with purified siphonaxanthin. Due to the unavailability of standards, possible metabolites of siphonaxanthin were estimated from the siphonaxanthin standard curve.

[2] = Body weight, food intake and tissue weight of ICR mice fed siphonaxanthin diet; type: in vivo
Procedure: as §1

[3] = siphonaxanthin diet vs control diet, 16 days

- Concentration in brain ([1]; Brain, 16-day diet with siphonaxanthin 65.79 nmol/g, mean ± SEM, n = 4, N.D., not detected): 0.4 ± 0.3 pmol/g
- % of the total carotenoids in brain ([1]; Brain, 16-day siphonaxanthin diet): 100%
- Concentration in colon ([1]; Colon, 16-day diet with siphonaxanthin 65.79 nmol/g, mean ± SEM, n = 4): 198 ± 24.5 pmol/g
- % of the total carotenoids in colon ([1]; Colon, 16-day siphonaxanthin diet): 82.5%
- % of the total carotenoids in epididymal WAT ([1]; Epididymal WAT, 16-day siphonaxanthin diet): 14.6%
- Concentration in epididymal WAT ([1]; Epididymal white adipose tissue, 16-day diet with siphonaxanthin 65.79 nmol/g, mean ± SEM, n = 4, N.D., not detected): 27.8 ± 14.3 pmol/g
- Concentration in heart ([1]; Heart, 16-day diet with siphonaxanthin 65.79 nmol/g, mean ± SEM, n = 4): 67.1 ± 25.2 pmol/g
- % of the total carotenoids in heart ([1]; Heart, 16-day siphonaxanthin diet): 52.2%
- Concentration in BAT ([1]; Interscapular brown adipose tissue, 16-day diet with siphonaxanthin 65.79 nmol/g, mean ± SEM, n = 4): 30.5 ± 11.4 pmol/g
- % of the total carotenoids in BAT ([1]; Interscapular brown adipose tissue, 16-day siphonaxanthin diet): 41.7%
- Concentration in kidney ([1]; Kidney, 16-day diet with siphonaxanthin 65.79 nmol/g, mean ± SEM, n = 4): 38.2 ± 15.7 pmol/g
- % of the total carotenoids in kidney ([1]; Kidney, 16-day siphonaxanthin diet): 84.1%
- Concentration in liver ([1]; Liver, 16-day diet with siphonaxanthin 65.79 nmol/g, mean ± SEM, n = 4): 37.1 ± 14.4 pmol/g
- % of the total carotenoids in liver ([1]; Liver, 16-day siphonaxanthin diet): 18.7%
- Concentration in lung ([1]; Lung, 16-day diet with siphonaxanthin 65.79 nmol/g, mean ± SEM, n = 4): 22.9 ± 8.2 pmol/g
- % of the total carotenoids in lung ([1]; Lung, 16-day siphonaxanthin diet): 38.8%
- % of the total carotenoids in mesenteric WAT ([1]; Mesenteric WAT, 16-day siphonaxanthin diet): 24.5%
- Concentration in mesenteric WAT ([1]; Mesenteric white adipose tissue, 16-day diet with siphonaxanthin 65.79 nmol/g, mean ± SEM, n = 4): 110 ± 50.8 pmol/g
- Concentration in muscle ([1]; Muscle, 16-day diet with siphonaxanthin 65.79 nmol/g, mean ± SEM, n = 4): 14.2 ± 7.5 pmol/g
- % of the total carotenoids in muscle ([1]; Muscle, 16-day siphonaxanthin diet): 52.6%
- Concentration in pancreas ([1]; Pancreas, 16-day diet with siphonaxanthin 65.79 nmol/g, mean ± SEM, n = 4): 46.1 ± 12.5 pmol/g
- % of the total carotenoids in pancreas ([1]; Pancreas, 16-day siphonaxanthin diet): 45.4%
- % of the total carotenoids in perirenal WAT ([1]; Perirenal WAT, 16-day siphonaxanthin diet): 13.3%
- Concentration in perirenal WAT ([1]; Perirenal white adipose tissue, 16-day diet with siphonaxanthin 65.79 nmol/g, mean ± SEM, n = 4): 22.1 ± 12.0 pmol/g
- % of the total carotenoids in plasma ([1]; Plasma, 16-day siphonaxanthin diet): 5.5%
- Concentration in small intestine ([1]; Small intestine, 16-day diet with siphonaxanthin 65.79 nmol/g, mean ± SEM, n = 4): 3428 ± 1389 pmol/g
- % of the total carotenoids in small intestine ([1]; Small intestine, 16-day siphonaxanthin diet): 79.5%
- Concentration in spleen ([1]; Spleen, 16-day diet with siphonaxanthin 65.79 nmol/g, mean ± SEM, n = 4): 20.6 ± 3.4 pmol/g
- % of the total carotenoids in spleen ([1]; Spleen, 16-day siphonaxanthin diet): 45.7%
- Concentration in stomach ([1]; Stomach, 16-day diet with siphonaxanthin 65.79 nmol/g, mean ± SEM, n = 4, siphonaxanthin standard curve): 2054 ± 636 pmol/g
- % of the total carotenoids in stomach ([1]; Stomach, 16-day siphonaxanthin diet): 94.0%
- Concentration in testis ([1]; Testis, 16-day diet with siphonaxanthin 65.79 nmol/g, mean ± SEM, n = 4): 25.0 ± 10.0 pmol/g
- % of the total carotenoids in testis ([1]; Testis, 16-day siphonaxanthin diet): 84.3%
- concentration at 16 days ([1]; male, mouse, oral, 65.79 nmol/g of diet, Plasma, 16-day diet with siphonaxanthin 65.79 nmol/g, mean ± SEM, n = 4): 18.3 ± 4 nM
Compound: CC1=C[C@H](O)CC(C)(C)[C@H]1/C=C/C(C)=C/C=C/C(C)=C/C=C/C=C(C)/C=C/C=C(\CO)C(=O)CC1=C(C)C[C@@H](O)CC1(C)C [Siphonaxanthin, 3,19,3’-Trihydroxy-7,8-dihydro-β,ε-caroten-8-one]
- Cellular concentration of siphonaxanthin (Caco-2 cells): rapidly and linearly increased until 3 h after incubation, and then gradually increased until 24 h
- Concentration of siphonaxanthin in the medium (Caco-2 cells): decreased with increasing incubation time
- Body weight [2, 3]: not altered
- Weight of the other tissues [2, 3]: did not significantly decrease
- Weight of the spleen ([2]; siphonaxanthin diet vs control diet, 16 days, p < 0.05): significantly decreased
- Food intake ([2]; siphonaxanthin vs control group, 16-day experimental period): not altered
